The test system of one test is RSV (Group A, Long Strain). Briefly: Cytopathetic effect (CPE) protection antiviral assay, MTT readout. The format is cell-based. The note with it: human respiratory syncytial virus, HEp-2, 96 h, HEp-2 cells, 0.2 MOI RSV, 4 days incubation, protection from CPE (Table 1); read-out: RSV EC50. How it is done:
HEp-2 cells and RSV (Group A, Long Strain) were obtained from the American Type Culture Collection (Manassas, Va.).
A cytopathetic effect (CPE) protection assay was performed to determine the ability of a compound to protect the cells from viral infection and thus the CPE induced by viral infection. 96-Well plates were first seeded with […] per well in Dulbecco's modified Eagle's medium (DMEM) containing 10% fetal bovine serum (FBS). One day after the cells were seeded, they were preincubated with serial dilutions of compounds prepared in 100 μL assay medium (DMEM mixed with F12 medium at a 1:1 ratio, supplemented with 2% FBS and 1 mM sodium pyruvate) for 1 hour at 37° C. 100 μL of assay medium containing 0.2 multiplicity of infection (MOI) of RSV was then added to each well of cells. In addition to wells containing infected cells incubated with compounds, each plate also contained replicates of two kinds of controls: (1) Virus control contained cells infected with 0.2 MOI of RSV in assay medium, (2) Uninfected cell control contained cells incubated with assay medium only. After 4 days of incubation at 37° C., the viability of cells was assessed using MTT (Thiazolyl blue tetrazolium bromide, Sigma). A stock solution of MTT, at a concentration of 4 mg/mL in phosphate-buffered saline, was added to all wells at 25 μL per well. Plates were further incubated for 4 hours, and each well was then treated with 50 μL of a solution containing 20% sodium dodecyl sulfate (SDS) and 0.02 N HCl. After an overnight incubation, the plates were measured on a BioTek® microtiter plate reader at wavelengths of 570 nm and 650 nm. The MTT detection is based on the fact that viable (uninfected) cells can reduce the tetrazolium salts into colored formazan products, which can then be quantitated by spectrometry. Based on the spectrometric absorbance of each sample, the percent of protection from CPE, which is an indicator of protection from viral infection, can be calculated for each compound and the 50% effective concentrations (EC50) can be calculated using a nonlinear regression curve fitting equation provided by the GraphPad Prism® 4 software.
Compounds were tested to determine both their antiviral and toxicity to determine their therapeutic window. Determination of the EC50 and TD50 of these active compounds were repeated one additional time to confirm the window.
In the case of `Cc1ccccc1N/C(=N/C#N)N1CCN(c2cnc3cccc(C(F)(F)F)c3n2)CC1C(C)C` (stereo not drawn) [Example 1.59, N′-cyano-2-isopropyl-N-(2-methylphenyl)-4-[8-(trifluoromethyl)quinoxalin-2-yl]piperazine-1-carboximidamide], the EC50 (commonly the concentration at which the effect is half-maximal) was above 3.2 µM. The same measure, in the same setting: for `COc1ccccc1N/C(=N/C#N)N1CCN(c2cnc3ccccc3n2)CC1C(C)C` (stereo not drawn) [Example 1.18, N′-cyano-2-isopropyl-N-(2-methoxyphenyl)-4-(quinoxalin-2-yl)piperazine-1-carboximidamide] the value was 1.16 µM. On the same count and under the same terms, in the case of `Cc1ccccc1N/C(=N/C#N)N1CCN(c2ccc3ccccc3n2)CC1C(C)C` (stereo not drawn) [Example 1.61, N′-cyano-2-isopropyl-N-(2-methylphenyl)-4-(quinolin-2-yl)piperazine-1-carboximidamide] it was above 6.6 µM; in that of `Cc1ccc2ccc(N3CCN(C(=NC#N)Nc4ccccc4C)C(C(C)C)C3)nc2n1` (stereo not drawn) [Example 1.68, N′-cyano-2-isopropyl-4-(7-methyl-1,8-naphthyridin-2-yl)-N-(2-methylphenyl)piperazine-1-carboximidamide], above 10 µM. Same read-out and setting: in the case of `Cc1ccccc1N/C(=N/C#N)N1CCN(c2cnc3ccccc3n2)CC1C` (stereo not drawn) [Example 1.42, N′-cyano-2-methyl-N-(2-methylphenyl)-4-(quinoxalin-2-yl)piperazine-1-carboximidamide] it was above 10 µM; in that of `Cc1ccccc1NC(=NC#N)N1CCN(c2nc(C)c(C)c(NC3CCCCC3)n2)CC1C(C)C` (stereo not drawn) [Example 1.64, N′-cyano-4-[4-(cyclohexylamino)-5,6-dimethylpyrimidin-2-yl]-2-isopropyl-N-(2-methylphenyl)piperazine-1-carboximidamide], above 10 µM; in that of `CC(C)C1CN(c2cnc3ccccc3n2)CCN1/C(=N\C#N)Nc1cccc(Cl)c1` (stereo not drawn) [Example 1.28, N-(3-chlorophenyl)-N′-cyano-2-isopropyl-4-(quinoxalin-2-yl)piperazine-1-carboximidamide], 3.1 µM.

For the compound `Cc1ccccc1NC(=NC#N)NC(CNc1cnc2ccccc2n1)C(C)C` (stereo not drawn) [Example 2.1, 2-cyano-1-(2-methylphenyl)-3-[3-methyl-1-(quinoxalin-2-ylamino)butan-2-yl]guanidine], the EC50 was above 10 µM. On the same count and under the same terms, for `Cc1ccccc1N/C(=N/C#N)N1CCN(c2nc3ccccc3nc2C(F)(F)F)CC1C(C)C` (stereo not drawn) [Example 1.53, N′-cyano-2-isopropyl-N-(2-methylphenyl)-4-[3-(trifluoromethyl)quinoxalin-2-yl]piperazine-1-carboximidamide] the value was above 10 µM.

Turning to `Cc1ccccc1CN/C(=N/C#N)N1CCN(c2cnc3ccccc3n2)CC1C(C)C` (stereo not drawn) [Example 1.35, N′-cyano-2-isopropyl-N-(2-methylbenzyl)-4-(quinoxalin-2-yl)piperazine-1-carboximidamide], the 50% effective concentration (EC50) was above 10 µM. With `Cc1cccc(F)c1N/C(=N/C#N)N1CCN(c2cnc3ccccc3n2)CC1C(C)C` (stereo not drawn) [Example 1.33, N′-cyano-N-(2-fluoro-6-methylphenyl)-2-isopropyl-4-(quinoxalin-2-yl)piperazine-1-carboximidamide], the EC50 turned out to be 0.3 µM.

For the compound `CC(C)C1CN(c2cnc3ccccc3n2)CCN1/C(=N\C#N)Nc1cccc(C(F)(F)F)c1` (stereo not drawn) [Example 1.25, N′-cyano-2-isopropyl-4-(quinoxalin-2-yl)-N-[3-(trifluoromethyl)phenyl]piperazine-1-carboximidamide], the concentration giving a half-maximal response (EC50) is above 7.29 µM. Same read-out and setting: for `Cc1ccccc1N/C(=N/C#N)N1CCN(c2cnc3ccccc3n2)CC1C(C)(C)C` (stereo not drawn) [Example 1.46, 2-tert-butyl-N′-cyano-N-(2-methylphenyl)-4-(quinoxalin-2-yl)piperazine-1-carboximidamide] the value was above 10 µM. On the same count and under the same terms, for `Cc1ccccc1N/C(=N/C#N)N1CCN(c2cnc3cc(Cl)c(Cl)cc3n2)CC1C(C)C` (stereo not drawn) [Example 1.58, N′-cyano-4-(6,7-dichloroquinoxalin-2-yl)-2-isopropyl-N-(2-methylphenyl)piperazine-1-carboximidamide] the value was above 3.2 µM. The same measure, in the same setting: for `Cc1cc2ncc(N3CCN(/C(=N\C#N)Nc4ccccc4C)C(C(C)C)C3)nc2cc1C` (stereo not drawn) [Example 1.50, N′-cyano-4-(6,7-dimethylquinoxalin-2-yl)-2-isopropyl-N-(2-methylphenyl)piperazine-1-carboximidamide] the value was above 3.2 µM; for `Cc1ccccc1NC(=NC#N)N1CCN(c2cnc3ccccc3n2)CC1` [Example 1.74, N′-cyano-N-(2-methylphenyl)-4-(quinoxalin-2-yl)piperazine-1-carboximidamide], above 61.7 µM. As to `CC(C)C1CN(c2cnc3ccccc3n2)CCN1/C(=N\C#N)Nc1cccc(F)c1` (stereo not drawn) [Example 1.20, N′-cyano-N-(3-fluorophenyl)-2-isopropyl-4-(quinoxalin-2-yl)piperazine-1-carboximidamide], the EC50 was above 10 µM. For the compound `Cc1ccc2ncc(N3CCN(/C(=N\C#N)Nc4ccccc4C)C(C(C)C)C3)nc2c1` (stereo not drawn) [Example 1.56, N′-cyano-2-isopropyl-N-(2-methylphenyl)-4-(7-methylquinoxalin-2-yl)piperazine-1-carboximidamide], the half-maximal effective concentration (EC50) came to 1.6 µM. Still for that read-out and setting: for `CC(C)C1CN(c2cnc3ccccc3n2)CCN1/C(=N\C#N)Nc1ccccc1OC(F)(F)F` (stereo not drawn) [Example 1.27, N′-cyano-2-isopropyl-4-(quinoxalin-2-yl)-N-[2-(trifluoromethoxy)phenyl]piperazine-1-carboximidamide] the value was above 10 µM; for `Cc1ccccc1N/C(=N/C#N)N1CCN(c2cnc3ccccc3n2)CC1C1CCCCC1` (stereo not drawn) [Example 1.48, N′-cyano-2-cyclohexyl-N-(2-methylphenyl)-4-(quinoxalin-2-yl)piperazine-1-carboximidamide], 1.34 µM; for `CC(C)CC1CN(c2cnc3ccccc3n2)CCN1/C(=N\C#N)Nc1ccccc1Cl` (stereo not drawn) [Example 1.41, N-(2-chlorophenyl)-N′-cyano-2-isobutyl-4-(quinoxalin-2-yl)piperazine-1-carboximidamide], 1.22 µM. The same measure, in the same setting: for `Cc1ccccc1N/C(=N/C#N)N1CCN(c2cnc3cc(C(F)(F)F)ccc3n2)CC1C(C)C` (stereo not drawn) [Example 1.57, N′-cyano-2-isopropyl-N-(2-methylphenyl)-4-[6-(trifluoromethyl)quinoxalin-2-yl]piperazine-1-carboximidamide] the value was 0.29 µM; for `Cc1ccccc1N/C(=N/C#N)N1CCN(c2cnc3ccccc3n2)CC1CC1CCCCC1` (stereo not drawn) [Example 1.49, N′-cyano-2-(cyclohexylmethyl)-N-(2-methylphenyl)-4-(quinoxalin-2-yl)piperazine-1-carboximidamide], above 3.2 µM. Still for that read-out and setting: for `Cc1ccccc1NC(=NC#N)N1CCN(c2ccc3cccnc3n2)CC1C(C)C` (stereo not drawn) [Example 1.66, N′-cyano-2-isopropyl-N-(2-methylphenyl)-4-(1,8-naphthyridin-2-yl)piperazine-1-carboximidamide] the value was 1.5 µM; for `CC(C)C1CN(c2cnc3ccccc3n2)CCN1/C(=N\C#N)Nc1cc(C(C)(C)C)nn1C` (stereo not drawn) [Example 1.36, N-(3-tert-butyl-1-methyl-1H-pyrazol-5-yl)-N′-cyano-2-isopropyl-4-(quinoxalin-2-yl)piperazine-1-carboximidamide], above 6.6 µM. As for `CC(C)C1CN(c2cnc3ccccc3n2)CCN1/C(=N\C#N)Nc1ccc(Cl)cc1` (stereo not drawn) [Example 1.15, N-(4-chlorophenyl)-N′-cyano-2-isopropyl-4-(quinoxalin-2-yl)piperazine-1-carboximidamide], the half-maximal effective concentration (EC50) is above 10 µM. On the same count and under the same terms, for `Cc1cccc(N/C(=N/C#N)N2CCN(c3cnc4ccccc4n3)CC2CC(C)C)c1` (stereo not drawn) [Example 1.38, N′-cyano-2-isobutyl-N-(3-methylphenyl)-4-(quinoxalin-2-yl)piperazine-1-carboximidamide] the value was above 3.1 µM.

As to `Cc1ccccc1N/C(=N/C#N)N1CCN(c2ncc3ccccc3n2)CC1C(C)C` (stereo not drawn) [Example 1.62, N′-cyano-2-isopropyl-N-(2-methylphenyl)-4-(quinazolin-2-yl)piperazine-1-carboximidamide], the EC50 was above 32 µM. The same measure, in the same setting: for `Cc1ccccc1N(C)C(=NC#N)N1CCN(c2cnc3ccccc3n2)CC1C(C)C` (stereo not drawn) [Example 1.75, N′-cyano-2-isopropyl-N-methyl-N-(2-methylphenyl)-4-(quinoxalin-2-yl)piperazine-1-carboximidamide] the value was 3.4 µM.

The same test, now with this note: human respiratory syncytial virus, HEp-2, 96 h, read-out: RSV EC50.
In the case of `Cc1ccccc1NC(=NC#N)N1CCN(c2cnc3ccccc3n2)CCC1C(C)C` (stereo not drawn) [Example 3.1, N′-cyano-7-isopropyl-N-(2-methylphenyl)-4-(quinoxalin-2-yl)-1,4-diazepane-1-carboximidamide], the EC50 was above 32 µM.

These data come from patent publication US10112911B2, “Substituted cyanoguanidines as oral anti-virals” (Abbvie Inc, priority 2012, dated 2018).
